Measured values from patent US20250213510A1, “Aqueous Composition” (TSUBOTA LABORATORY, Inc., priority 2022, published 2025).

Key:
[1] = Stability of sodium 4-phenylbutyrate in multi-dose type containers (liquid chromatography); type: physicochemical; conditions: PE, PP, PET; 60° C., 1 week (Table 1-2)
Procedure: Each aqueous composition (formulations 1-0 to 1-4) shown in Table 1-1 was prepared through a usual method to fill 5-mL volume multi-dose type containers made of polyethylene (PE), polypropylene (PP), and polyethylene terephthalate (PET) by 5 mL each.
Liquid chromatography was used to quantify sodium 4-phenylbutyrate. 10 μL of 0.05 w/v % sodium 4-phenylbutyrate solution was used as a standard solution, and 10 μL of a formulation diluted 10 times with a mobile phase was used as a sample solution. The standard solution and the sample solution were each placed on a reverse-phase column (YMC-Pack ODS-A (I.D. 4.6 mm×150 mm, 5 μm) manufactured by YMC CO., LTD.) maintained at 30° C., and eluted with a 0.2% formic acid solution-acetonitrile mixture as a mobile phase. Detection was performed with an ultraviolet absorptiometer (measurement wavelength: 260 nm). Thereafter, the peak area of sodium 4-phenylbutyrate was measured for the standard solution and the sample solution, and the concentration of sodium 4-phenylbutyrate was determined for each formulation immediately after preparation and after storage at 60° C. for 1 week using Equation 1 below.

[2] = Stability of sodium 4-phenylbutyrate in unit-dose type containers (liquid chromatography); type: physicochemical; conditions: PE, COC/PE; 40° C., 1 month (Table 1-5)
Procedure: An aqueous composition (formulation 2-1) shown in Table 1-4 was prepared through a usual method to fill a 0.5-mL volume polyethylene (PE) unit-dose type container and a unit-dose type resin container made of a mixture of a cyclic olefin copolymer (COC) and polyethylene (PE) by 0.5 mL each.
Liquid chromatography was used to quantify sodium 4-phenylbutyrate. 20 μL of 0.02 w/v % sodium 4-phenylbutyrate solution was used as a standard solution, and 20 μL of a formulation 2-1 diluted 10 times with a mobile phase was used as a sample solution. The standard solution and the sample solution were each placed on a reverse-phase column (YMC-Pack ODS-A (I.D. 4.6 mm×150 mm, 5 μm) manufactured by YMC CO., LTD.) maintained at 30° C., and eluted with a 0.2% formic acid solution-acetonitrile mixture as a mobile phase. Detection was performed with an ultraviolet absorptiometer (measurement wavelength: 260 nm). Thereafter, the peak area of sodium 4-phenylbutyrate was measured for the standard solution and the sample solution, and the concentration of sodium 4-phenylbutyrate was determined for the formulation 2-1 immediately after preparation and after storage at 40° C. for 1 month using Equation 3 below.

Stability of sodium 4-phenylbutyrate itself among the container resins [1]: no difference in stability | Stability of sodium 4-phenylbutyrate itself among the container resins [2]: no difference in stability
SMILES: O=C([O-])CCCc1ccccc1.[Na+] [sodium 4-phenylbutyrate, Sodium 4-phenylbutyrate]
